# PubChem BioAssay AID330 (DTP/NCI, 2004)
# Several values for one entry are separate records, joined by “and”; a condition that tells them apart may be missing. Identical values can stand only once. Inconclusive results and toxic doses are left out.
# Test system: P388 leukemia ip, CD2F1 mice, survival T/C
# Assay: NCI In Vivo Anticancer Drug Screen. Data for tumor model P388 Leukemia (intraperitoneal) in CD2F1 (CDF1) mice
# Conditions: endpoint: median survival time, higher = longer survival
# Outline: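 Mice carrying the transplanted tumor received test compound or vehicle. Survival was recorded in each group, and the value is the treated-group measurement divided by that of the vehicle-treated control group.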
# [1] = dose: 50.0 mg/kg/injection, schedule: Q01DX009 (ip), vehicle: Klucel (hydroxypropylcellulose) (HPC)
# [2] = dose: 100.0 mg/kg/injection, schedule: Q01DX009 (ip), vehicle: Klucel (hydroxypropylcellulose) (HPC)
# [3] = dose: 25.0 mg/kg/injection, schedule: Q01DX009 (ip), vehicle: saline with Tween-80
# [4] = dose: 50.0 mg/kg/injection, schedule: Q01DX009 (ip), vehicle: saline with Tween-80
# [5] = dose: 200.0 mg/kg/injection, schedule: Q01DX009 (ip), vehicle: saline with Tween-80
# [6] = dose: 25.0 mg/kg/injection, schedule: Q01DX005 (ip), vehicle: Klucel (hydroxypropylcellulose) (HPC)
# [7] = dose: 50.0 mg/kg/injection, schedule: Q01DX005 (ip), vehicle: Klucel (hydroxypropylcellulose) (HPC)
# [8] = dose: 100.0 mg/kg/injection, schedule: Q01DX005 (ip), vehicle: Klucel (hydroxypropylcellulose) (HPC)
# [9] = dose: 200.0 mg/kg/injection, schedule: Q01DX005 (ip), vehicle: Klucel (hydroxypropylcellulose) (HPC)
# [10] = dose: 60.0 mg/kg/injection, schedule: Q01DX005 (ip), vehicle: saline with Tween-80
# [11] = dose: 120.0 mg/kg/injection, schedule: Q01DX005 (ip), vehicle: saline with Tween-80
# [12] = dose: 240.0 mg/kg/injection, schedule: Q01DX005 (ip), vehicle: saline with Tween-80
# [13] = dose: 6.25 mg/kg/injection, schedule: Q01DX009 (ip), vehicle: saline
# [14] = dose: 12.5 mg/kg/injection, schedule: Q01DX009 (ip), vehicle: saline
# [15] = dose: 50.0 mg/kg/injection, schedule: Q01DX009 (ip), vehicle: saline
# [16] = dose: 100.0 mg/kg/injection, schedule: Q01DX009 (ip), vehicle: saline with Tween-80
# [17] = dose: 50.0 mg/kg/injection, schedule: Q01DX005 (ip), vehicle: saline with Tween-80
# [18] = dose: 100.0 mg/kg/injection, schedule: Q01DX005 (ip), vehicle: saline with Tween-80
# [19] = dose: 200.0 mg/kg/injection, schedule: Q01DX005 (ip), vehicle: saline with Tween-80
# [20] = dose: 12.5 mg/kg/injection, schedule: Q01DX009 (ip), vehicle: Klucel (hydroxypropylcellulose) (HPC)
# [21] = dose: 25.0 mg/kg/injection, schedule: Q01DX009 (ip), vehicle: Klucel (hydroxypropylcellulose) (HPC)
structure (smiles),measurement,setting,value
CCCCCCCCCCCCCCCCOc1ccc(S(=O)(=O)Nc2ccc(N)cc2O)cc1,T/C,[1],110 % of control
same,T/C,[2],94 % of control
same,T/C,"dose: 200.0 mg/kg/injection, schedule: Q01DX009 (ip), vehicle: Klucel (hydroxypropylcellulose) (HPC)",112 % of control
CCCCOP(O)(=S)OCCCC.[Gd],T/C,[3],92 % of control
same,T/C,[4],87 % of control and 98 % of control
same,T/C,[5],86 % of control
Nc1cc2c3ccccc3ccc2c2ccccc12,T/C,[6],104 % of control
same,T/C,[7],107 % of control
same,T/C,[8],109 % of control
same,T/C,[9],105 % of control
CCCCCc1c(C)[nH]n(C(N)=NCCSCc2nc[nH]c2C)c1=O,T/C,"dose: 60.0 mg/kg/injection, schedule: Q01DX005 (ip), vehicle: Klucel (hydroxypropylcellulose) (HPC)",100 % of control
same,T/C,"dose: 120.0 mg/kg/injection, schedule: Q01DX005 (ip), vehicle: Klucel (hydroxypropylcellulose) (HPC)",102 % of control
same,T/C,"dose: 240.0 mg/kg/injection, schedule: Q01DX005 (ip), vehicle: Klucel (hydroxypropylcellulose) (HPC)",91 % of control
CC1(C)N=C(N)N=C(N)N1c1ccc(C(N)=O)cc1,T/C,[6],100 % of control and 101 % of control
same,T/C,[7],99 % of control and 100 % of control
same,T/C,[8],101 % of control and 98 % of control
O=C1NC(=O)C2=C1CCC2,T/C,"dose: 3.13 mg/kg/injection, schedule: Q01DX009 (ip), vehicle: distilled water + Tween-80",98 % of control
same,T/C,"dose: 6.25 mg/kg/injection, schedule: Q01DX009 (ip), vehicle: distilled water + Tween-80",104 % of control
same,T/C,"dose: 12.5 mg/kg/injection, schedule: Q01DX009 (ip), vehicle: distilled water + Tween-80",114 % of control
Cc1cc(C)[n+]([O-])c(C)c1,T/C,[10],101 % of control
same,T/C,"dose: 60.0 mg/kg/injection, schedule: Q01DX005 (ip), vehicle: saline",105 % of control
same,T/C,[11],99 % of control
same,T/C,"dose: 120.0 mg/kg/injection, schedule: Q01DX005 (ip), vehicle: saline",102 % of control
same,T/C,[12],97 % of control
same,T/C,"dose: 240.0 mg/kg/injection, schedule: Q01DX005 (ip), vehicle: saline",105 % of control
NC(CO)C(=O)O.[Cl-].[Cl-].[Cl-].[Cl-].[Pt+2] (stereo unspecified),T/C,[13],114 % of control
same,T/C,[14],115 % of control
same,T/C,[15],159 % of control
CC(C)=C(C)OS(=O)(=O)C(F)(F)F,T/C,"dose: 50.0 mg/kg/injection, schedule: Q01DX009 (ip), vehicle: olive oil, sesame oil, peanut oil",102 % of control
same,T/C,"dose: 100.0 mg/kg/injection, schedule: Q01DX009 (ip), vehicle: olive oil, sesame oil, peanut oil",114 % of control
same,T/C,"dose: 200.0 mg/kg/injection, schedule: Q01DX009 (ip), vehicle: olive oil, sesame oil, peanut oil",96 % of control
Cc1c(N=Nc2ccc(Br)cc2)c(-c2ccccc2)nn1C(N)=S,T/C,[7],102 % of control
same,T/C,[8],105 % of control
Fc1ccc(CSc2ncnc3nc[nH]c23)cc1,T/C,[16],90 % of control
same,T/C,[5],100 % of control
same,T/C,"dose: 400.0 mg/kg/injection, schedule: Q01DX009 (ip), vehicle: saline with Tween-80",100 % of control
CCN(CC)CCOC(=O)c1ccc(N=NC2Sc3nc4ccccc4n3C2=O)cc1 (stereo unspecified),T/C,"dose: 7.5 mg/kg/injection, schedule: Q01DX005 (ip), vehicle: Klucel (hydroxypropylcellulose) (HPC)",92 % of control
same,T/C,"dose: 15.0 mg/kg/injection, schedule: Q01DX005 (ip), vehicle: Klucel (hydroxypropylcellulose) (HPC)",96 % of control
same,T/C,"dose: 30.0 mg/kg/injection, schedule: Q01DX005 (ip), vehicle: Klucel (hydroxypropylcellulose) (HPC)",96 % of control
CCOC(=O)Nc1cc2c(cn1)[nH]c1ccccc12,T/C,[10],105 % of control
same,T/C,[11],114 % of control
same,T/C,[12],112 % of control
Clc1ccc(C2(c3ccncc3)OCCO2)cc1,T/C,"dose: 75.0 mg/kg/injection, schedule: Q01DX001 (ip), vehicle: saline",109 % of control
same,T/C,"dose: 150.0 mg/kg/injection, schedule: Q01DX001 (ip), vehicle: saline",104 % of control
same,T/C,"dose: 300.0 mg/kg/injection, schedule: Q01DX001 (ip), vehicle: saline",90 % of control
CCCC1(CCC)CCC2C3CCC4CC(O)CCC4(C)C3CCC2(C)N1O (stereo unspecified),T/C,"dose: 100.0 mg/kg/injection, schedule: Q01DX001 (ip), vehicle: Klucel (hydroxypropylcellulose) (HPC)",92 % of control
same,T/C,"dose: 200.0 mg/kg/injection, schedule: Q01DX001 (ip), vehicle: Klucel (hydroxypropylcellulose) (HPC)",89 % of control
same,T/C,"dose: 400.0 mg/kg/injection, schedule: Q01DX001 (ip), vehicle: Klucel (hydroxypropylcellulose) (HPC)",91 % of control
O=S(CCCl)c1ccccc1 (stereo unspecified),T/C,[3],96 % of control
same,T/C,[4],97 % of control
same,T/C,[16],101 % of control
same,T/C,[5],90 % of control
CC(C)CN1CC(=O)N2Cc3ccccc3CN2C(=O)C1,T/C,[17],101 % of control
same,T/C,[18],106 % of control
same,T/C,[19],103 % of control
CCn1c(=O)c(Cl)c2n(C)c3ccccc3n2c1=O,T/C,[10],97 % of control
same,T/C,[11],95 % of control
same,T/C,[12],94 % of control
Cc1nc2sc3c(c2c2nncn12)CCCC3,T/C,[7],103 % of control
same,T/C,[8],97 % of control
same,T/C,[9],97 % of control
CCC(C)(Oc1ccc(Cc2ccc(Cl)cc2)cc1)C(=O)OCc1cccnc1 (stereo unspecified),T/C,"dose: 50.0 mg/kg/injection, schedule: Q01DX009 (ip), vehicle: suspension in saline",95 % of control
same,T/C,"dose: 100.0 mg/kg/injection, schedule: Q01DX009 (ip), vehicle: suspension in saline",95 % of control
same,T/C,"dose: 200.0 mg/kg/injection, schedule: Q01DX009 (ip), vehicle: suspension in saline",94 % of control
COC(=O)Nc1nc2ccc(C(O)(c3ccccc3)c3cccs3)cc2[nH]1 (stereo unspecified),T/C,"dose: 25.0 mg/kg/injection, schedule: Q01DX005 (ip), vehicle: saline with Tween-80",95 % of control
same,T/C,[17],95 % of control
same,T/C,[18],99 % of control
COC(=O)[C@H](NC(=O)c1ccccc1)[C@@H](O)/C=C/c1ccccc1,T/C,[17],94 % of control
same,T/C,[19],87 % of control
CCOC(=O)c1ccc(NC(CCNC2CCCCC2)=NC(C)(C)C)cc1,T/C,[4],96 % of control
same,T/C,[16],97 % of control
same,T/C,[5],96 % of control
CCCCCCCCN(C)N=Nc1ccccc1C(=O)O,T/C,[20],105 % of control
same,T/C,[21],118 % of control
same,T/C,[1],115 % of control
same,T/C,[2],108 % of control
NS(=O)(=O)c1ccc(NC(=O)Nc2cc(C(F)(F)F)ccc2Cl)cc1,T/C,[10],103 % of control
same,T/C,[11],96 % of control
same,T/C,[12],87 % of control
CCC(C)N(CC(C)C)CC(C)(O)CNc1cc(OC)cc2cccnc12 (stereo unspecified),T/C,"dose: 12.0 mg/kg/injection, schedule: Q01DX005 (ip), vehicle: saline",100 % of control
same,T/C,"dose: 25.0 mg/kg/injection, schedule: Q01DX005 (ip), vehicle: saline",105 % of control
same,T/C,"dose: 50.0 mg/kg/injection, schedule: Q01DX005 (ip), vehicle: saline",108 % of control and 96 % of control
CC[N+]1(C)CCCCC1,T/C,[13],107 % of control
same,T/C,[14],103 % of control
same,T/C,"dose: 25.0 mg/kg/injection, schedule: Q01DX009 (ip), vehicle: saline",97 % of control
same,T/C,[15],97 % of control
CC1(Cl)CC2OC3(Br)C=CC(C)(O)C2(CC1Br)C3(C)C (stereo unspecified),T/C,[20],101 % of control
same,T/C,[21],100 % of control
same,T/C,[1],100 % of control
same,T/C,[2],101 % of control
CN1CCN(c2ccccc2N)CC1,T/C,"dose: 5.0 mg/kg/injection, schedule: Q01DX009 (ip), vehicle: saline with Tween-80",104 % of control
same,T/C,"dose: 10.0 mg/kg/injection, schedule: Q01DX009 (ip), vehicle: saline with Tween-80",100 % of control
same,T/C,"dose: 20.0 mg/kg/injection, schedule: Q01DX009 (ip), vehicle: saline with Tween-80",95 % of control
Cc1ccc(S(=O)(=O)Oc2ccc3oc4cccc(NCCN(C)C)c4c(=O)c3c2)cc1,T/C,[17],95 % of control
same,T/C,[18],97 % of control
same,T/C,[19],93 % of control
